In ChEMBL document CHEMBL4507324 (2021):

Experiments:
[1] = biological target: Mitogen-activated protein kinase 11 (Homo sapiens, UniProt Q15759); settings: Compound concentration 100.0 nM
[2] = biological target: 5-hydroxytryptamine receptor 5A (Homo sapiens) (UniProt P47898); settings: Compound concentration 10.0 uM
[3] = biological target: Delta-type opioid receptor (Homo sapiens) (UniProt P41143); settings: Compound concentration 10.0 uM
[4] = biological target: D(1B) dopamine receptor (Homo sapiens) (UniProt P21918); settings: Compound concentration 10.0 uM
[5] = biological target: Serine/threonine-protein kinase Chk2 (Homo sapiens, UniProt O96017); test: NanoBRET (SGC-Frankfurt) (CHEK2)
[6] = biological target: 5-hydroxytryptamine receptor 1B (Homo sapiens) (UniProt P28222); settings: Compound concentration 10.0 uM
[7] = biological target: GABA-A receptor; anion channel (Rattus norvegicus) (UniProt O09028+P15431+P18506+P18508+P19969+P20236+P23574+P23576+P28471+P28473+P30191+P62813+P63079+P63138+Q91ZM7+Q9ES14); settings: Compound concentration 10.0 uM
[8] = biological target: Mu-type opioid receptor (Homo sapiens) (UniProt P35372); settings: Compound concentration 10.0 uM
[9] = biological target: Sodium-dependent dopamine transporter (Homo sapiens) (UniProt Q01959); settings: Compound concentration 10.0 uM
[10] = biological target: Alpha-2B adrenergic receptor (Homo sapiens) (UniProt P18089); settings: Compound concentration 10.0 uM
[11] = biological target: Sigma intracellular receptor 2 (Homo sapiens) (UniProt Q5BJF2); settings: Compound concentration 10.0 uM
[12] = biological target: Beta-2 adrenergic receptor (Homo sapiens) (UniProt P07550); settings: Compound concentration 10.0 uM
[13] = biological target: 5-hydroxytryptamine receptor 6 (Homo sapiens) (UniProt P50406); settings: Compound concentration 10.0 uM
[14] = biological target: Histamine H3 receptor (Homo sapiens) (UniProt Q9Y5N1); settings: Compound concentration 10.0 uM
[15] = biological target: Sodium-dependent serotonin transporter (Homo sapiens) (UniProt P31645); settings: Compound concentration 10.0 uM
[16] = biological target: D(4) dopamine receptor (Homo sapiens) (UniProt P21917); settings: Compound concentration 10.0 uM
Sequence of D(4) dopamine receptor (Homo sapiens) (P21917 whole entry): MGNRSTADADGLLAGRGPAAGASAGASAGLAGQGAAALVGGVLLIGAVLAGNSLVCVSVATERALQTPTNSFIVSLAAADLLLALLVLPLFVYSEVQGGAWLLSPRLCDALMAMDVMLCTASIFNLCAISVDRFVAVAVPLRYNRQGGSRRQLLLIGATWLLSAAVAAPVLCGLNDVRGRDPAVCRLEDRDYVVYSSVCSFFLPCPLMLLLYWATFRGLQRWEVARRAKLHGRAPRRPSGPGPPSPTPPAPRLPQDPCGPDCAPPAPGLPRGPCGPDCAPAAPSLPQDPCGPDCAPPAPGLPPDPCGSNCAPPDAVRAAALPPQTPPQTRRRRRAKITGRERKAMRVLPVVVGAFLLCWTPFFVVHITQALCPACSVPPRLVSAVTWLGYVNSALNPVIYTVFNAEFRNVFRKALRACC

Sequence of Sodium-dependent serotonin transporter (Homo sapiens) (P31645 whole entry, looked up): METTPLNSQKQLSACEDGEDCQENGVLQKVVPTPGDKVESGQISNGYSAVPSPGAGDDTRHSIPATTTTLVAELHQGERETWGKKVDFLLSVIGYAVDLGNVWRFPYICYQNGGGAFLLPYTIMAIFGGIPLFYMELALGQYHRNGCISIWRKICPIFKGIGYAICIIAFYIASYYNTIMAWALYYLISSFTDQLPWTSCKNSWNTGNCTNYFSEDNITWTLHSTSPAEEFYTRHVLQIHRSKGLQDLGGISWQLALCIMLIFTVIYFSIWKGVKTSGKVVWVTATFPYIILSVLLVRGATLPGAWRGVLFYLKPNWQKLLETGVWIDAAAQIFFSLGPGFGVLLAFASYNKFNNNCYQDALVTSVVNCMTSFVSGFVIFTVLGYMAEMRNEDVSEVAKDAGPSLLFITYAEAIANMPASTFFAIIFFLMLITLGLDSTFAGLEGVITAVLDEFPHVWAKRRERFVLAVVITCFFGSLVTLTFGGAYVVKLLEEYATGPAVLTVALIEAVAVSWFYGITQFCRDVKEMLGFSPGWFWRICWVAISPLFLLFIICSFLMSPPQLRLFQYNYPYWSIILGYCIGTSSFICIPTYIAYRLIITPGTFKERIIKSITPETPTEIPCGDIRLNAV
Sequence of Sigma intracellular receptor 2 (Homo sapiens) (Q5BJF2 whole entry): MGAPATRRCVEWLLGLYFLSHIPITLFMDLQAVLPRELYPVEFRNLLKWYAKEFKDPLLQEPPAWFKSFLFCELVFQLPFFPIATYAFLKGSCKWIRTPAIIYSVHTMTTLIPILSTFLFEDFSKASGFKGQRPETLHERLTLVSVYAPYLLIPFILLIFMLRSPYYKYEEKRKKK
Sequence of 5-hydroxytryptamine receptor 5A (Homo sapiens) (P47898 whole entry): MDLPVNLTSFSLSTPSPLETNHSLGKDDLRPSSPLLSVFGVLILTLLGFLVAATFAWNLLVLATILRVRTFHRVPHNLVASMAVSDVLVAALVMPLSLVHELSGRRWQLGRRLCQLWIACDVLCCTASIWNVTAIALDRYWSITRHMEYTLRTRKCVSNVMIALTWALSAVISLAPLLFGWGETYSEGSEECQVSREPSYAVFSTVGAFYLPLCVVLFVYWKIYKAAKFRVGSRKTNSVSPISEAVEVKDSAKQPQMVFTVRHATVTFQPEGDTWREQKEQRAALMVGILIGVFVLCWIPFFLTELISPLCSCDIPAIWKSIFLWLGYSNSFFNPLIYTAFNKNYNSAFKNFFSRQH
Sequence of Mu-type opioid receptor (Homo sapiens) (P35372 whole entry): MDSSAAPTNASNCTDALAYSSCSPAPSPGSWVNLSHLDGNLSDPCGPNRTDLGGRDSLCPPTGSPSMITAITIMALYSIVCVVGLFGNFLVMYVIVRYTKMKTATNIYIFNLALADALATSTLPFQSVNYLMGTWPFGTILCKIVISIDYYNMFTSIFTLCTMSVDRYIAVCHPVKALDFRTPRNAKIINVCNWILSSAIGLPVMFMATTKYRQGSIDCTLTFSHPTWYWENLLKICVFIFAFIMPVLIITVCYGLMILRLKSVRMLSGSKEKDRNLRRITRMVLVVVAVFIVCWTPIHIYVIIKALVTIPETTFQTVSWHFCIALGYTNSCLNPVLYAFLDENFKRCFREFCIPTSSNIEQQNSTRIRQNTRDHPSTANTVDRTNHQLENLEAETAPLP
Sequence of Alpha-2B adrenergic receptor (Homo sapiens) (P18089 whole entry): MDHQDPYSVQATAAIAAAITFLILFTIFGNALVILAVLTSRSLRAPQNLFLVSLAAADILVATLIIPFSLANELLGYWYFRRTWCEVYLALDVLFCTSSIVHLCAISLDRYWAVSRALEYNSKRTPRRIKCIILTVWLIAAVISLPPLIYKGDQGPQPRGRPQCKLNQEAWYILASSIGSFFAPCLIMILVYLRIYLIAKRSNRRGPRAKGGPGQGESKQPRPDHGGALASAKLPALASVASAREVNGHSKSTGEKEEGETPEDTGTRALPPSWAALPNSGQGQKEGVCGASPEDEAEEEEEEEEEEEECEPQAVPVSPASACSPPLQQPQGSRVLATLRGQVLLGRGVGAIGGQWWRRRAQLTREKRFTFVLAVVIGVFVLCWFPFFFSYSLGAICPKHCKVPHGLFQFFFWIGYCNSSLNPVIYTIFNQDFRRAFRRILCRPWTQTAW
Sequence of Histamine H3 receptor (Homo sapiens) (Q9Y5N1 whole entry): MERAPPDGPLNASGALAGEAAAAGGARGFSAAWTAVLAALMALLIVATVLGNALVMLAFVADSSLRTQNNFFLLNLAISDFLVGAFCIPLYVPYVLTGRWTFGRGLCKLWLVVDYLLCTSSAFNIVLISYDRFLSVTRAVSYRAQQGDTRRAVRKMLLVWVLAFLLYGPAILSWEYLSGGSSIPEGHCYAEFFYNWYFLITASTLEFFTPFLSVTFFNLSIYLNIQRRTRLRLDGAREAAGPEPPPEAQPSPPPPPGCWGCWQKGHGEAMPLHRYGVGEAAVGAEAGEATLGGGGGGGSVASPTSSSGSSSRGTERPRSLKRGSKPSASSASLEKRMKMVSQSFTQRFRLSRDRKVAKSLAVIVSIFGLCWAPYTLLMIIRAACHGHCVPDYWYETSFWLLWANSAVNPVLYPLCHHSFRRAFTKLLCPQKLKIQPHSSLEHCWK
Sequence of D(1B) dopamine receptor (Homo sapiens) (P21918 whole entry): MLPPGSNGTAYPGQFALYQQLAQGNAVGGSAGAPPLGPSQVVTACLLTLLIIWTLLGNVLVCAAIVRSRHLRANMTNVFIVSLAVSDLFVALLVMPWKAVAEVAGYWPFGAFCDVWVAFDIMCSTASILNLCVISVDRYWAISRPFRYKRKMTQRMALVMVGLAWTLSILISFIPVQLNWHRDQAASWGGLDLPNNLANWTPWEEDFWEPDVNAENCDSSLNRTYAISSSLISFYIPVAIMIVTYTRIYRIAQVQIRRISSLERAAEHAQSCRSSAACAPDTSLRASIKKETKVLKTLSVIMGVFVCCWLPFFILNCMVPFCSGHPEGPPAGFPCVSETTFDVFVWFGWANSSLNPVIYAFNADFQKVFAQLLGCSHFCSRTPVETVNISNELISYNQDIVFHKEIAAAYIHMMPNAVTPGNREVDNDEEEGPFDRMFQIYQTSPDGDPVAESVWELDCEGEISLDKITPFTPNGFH
Sequence of Mitogen-activated protein kinase 11 (Q15759 whole entry): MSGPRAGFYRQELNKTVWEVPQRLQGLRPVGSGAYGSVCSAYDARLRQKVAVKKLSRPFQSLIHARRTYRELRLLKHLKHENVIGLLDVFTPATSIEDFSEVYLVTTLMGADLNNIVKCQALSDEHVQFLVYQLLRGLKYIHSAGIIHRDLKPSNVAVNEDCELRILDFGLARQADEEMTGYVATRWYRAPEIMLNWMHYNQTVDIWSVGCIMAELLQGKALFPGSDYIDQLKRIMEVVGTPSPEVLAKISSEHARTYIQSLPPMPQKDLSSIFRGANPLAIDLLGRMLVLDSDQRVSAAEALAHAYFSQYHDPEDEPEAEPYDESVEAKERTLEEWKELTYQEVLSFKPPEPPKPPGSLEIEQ
Sequence of Serine/threonine-protein kinase Chk2 (O96017 whole entry): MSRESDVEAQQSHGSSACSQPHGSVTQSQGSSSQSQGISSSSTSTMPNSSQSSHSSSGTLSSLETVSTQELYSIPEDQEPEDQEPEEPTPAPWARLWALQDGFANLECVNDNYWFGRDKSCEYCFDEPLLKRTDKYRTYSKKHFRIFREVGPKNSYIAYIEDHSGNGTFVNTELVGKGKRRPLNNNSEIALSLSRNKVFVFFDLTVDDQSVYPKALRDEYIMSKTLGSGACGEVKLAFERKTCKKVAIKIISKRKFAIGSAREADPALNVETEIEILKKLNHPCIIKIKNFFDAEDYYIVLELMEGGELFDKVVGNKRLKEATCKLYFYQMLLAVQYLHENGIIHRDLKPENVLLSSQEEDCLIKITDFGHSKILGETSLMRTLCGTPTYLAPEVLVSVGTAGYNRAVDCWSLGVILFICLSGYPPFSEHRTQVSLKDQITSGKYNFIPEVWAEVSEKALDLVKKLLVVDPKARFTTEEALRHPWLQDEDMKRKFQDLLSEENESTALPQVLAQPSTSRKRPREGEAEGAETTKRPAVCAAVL
Sequence of Delta-type opioid receptor (Homo sapiens) (P41143 whole entry): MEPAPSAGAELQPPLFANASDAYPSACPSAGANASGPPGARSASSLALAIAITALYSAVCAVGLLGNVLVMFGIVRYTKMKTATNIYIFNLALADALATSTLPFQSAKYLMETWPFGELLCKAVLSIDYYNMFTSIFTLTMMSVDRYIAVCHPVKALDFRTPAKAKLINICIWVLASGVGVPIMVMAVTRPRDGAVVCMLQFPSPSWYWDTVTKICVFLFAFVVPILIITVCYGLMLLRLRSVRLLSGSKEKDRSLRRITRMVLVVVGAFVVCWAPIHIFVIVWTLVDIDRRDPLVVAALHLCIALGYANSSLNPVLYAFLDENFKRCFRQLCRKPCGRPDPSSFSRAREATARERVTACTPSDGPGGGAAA

CS(=O)(=O)N1CCCC(NC(=O)[C@H](CCC2CCCCC2)NC(=O)c2ccc(CNc3ncnc4c3nnn4-c3ccccc3)cc2)C1 (stereo partly specified) [SR-301]
residual activity [1]: 100%

CS(=O)(=O)N1CCCC(NC(=O)[C@H](CCC2CCCCC2)NC(=O)c2ccc(CNC(=O)c3cnc4ccccn34)cc2)C1 (stereo partly specified) [SR-302]
inhibition [2]: 3.1% | inhibition [3]: 8.18% | inhibition [4]: 23.5% | IC50 [5]: > 25 µM | inhibition [6]: 10.9% | inhibition [7]: 15.8% | inhibition [8]: 45.3% | inhibition [9]: 11.5% | inhibition [10]: 13.5% | inhibition [11]: 32% | inhibition [12]: 16.3% | inhibition [13]: 18.2% | inhibition [14]: 0.32% | inhibition [15]: 19.8% | inhibition [16]: 3.78%
